In patent US10905757B2, “Cross-reactive T cell epitopes of HIV, SIV, and FIV for vaccines in humans and cats” (priority 2012, dated 2021):
“Also recorded” adds a separate entry of the source. Ends that are not written are not given here.

Assays:
Format in all cases: cell-based, human
[1] = test system: CD3+CD8+ T cells from HIV+ subjects; test: CFSE-proliferation, CD3+CD8+ T cells from HIV+ subjects; conditions: for CD8^+ T-cell Responder Frequency: responders/tested; for responder frequency of CD8+ T-cell proliferation to individual F3 peptides: eight F3 responders
Procedure: (§1) 2×10^5-5×10^5 CFSE labeled PBMCs were incubated with 15-20 μg of peptides in 600 μL of RPMI media with 10% FBS for 5 days at 37° C. (5% CO2). After harvesting, they were labeled with allophycocyanin (APC), APC-H7, and Pacific Blue labeled monoclonal antibodies (MAb) to human CD3, CD4, and CD8, respectively and analyzed for T-cell proliferation by flow cytometry using BD LSRII (BD Biosciences). The proliferating CD4^+ or CD8^+ T cell populations were defined from the CD3^+ cell population as either CD3^+CD8^+ or CD3^+CD4^+T cells (mutually exclusive) with low CFSE (CFSE^low) staining.
(§2) Flow cytometry (FACS) for carboxyfluoresein diacetate succinimide ester (CFSE)-proliferation and intracellular cytotoxin staining (ICS). The CFSE-proliferation analysis was performed on PBMC according to the manufacturer's protocol (Invitrogen, Carlsbad, Calif.) and processed as previously described (Lichterfeld et al. (2004)). Modifications consisted of using 2.0-5.0×10^5 CFSE-labeled cells stimulated for 5 days (37° C., 5% CO^2) with 30 μg/well of total peptides in a pool (15 μg/well for individual peptide, Table 10) or 5 μg/mL PHA in AIM V medium containing 25 μg/mL of gentamycin and 10% heat-inactivated human serum. Subsequently these cells were harvested and labeled with the LIVE/DEAD fixable yellow dye (Invitrogen) and then treated 5 min with anti-CD16/CD32 antibody (Biolegend, San Diego, Calif.) for blocking non-specific binding before phenotype-specific antibodies. The following antibodies were used for the CFSE-proliferation analysis: anti-CD4 APC, anti-CD3 APC-H7, and anti-CD8 Pacific Blue (BD Biosciences, San Jose, Calif.).
(§3) In both analyses, 1.0-2.0×10^4 cells were fixed in phosphate-buffered saline (PBS) containing 2% paraformaldehyde and analyzed on BD LSRII using […] Software (BD Biosciences), with a positive threshold of 3% CFSE^low for CFSE-proliferation and 1% T cells expressing cytotoxin for ICS. The final value for each subject was derived after subtraction of the subject's medium control and the average value of peptide-stimulated cells from uninfected control subjects.
(§4) Flow cytometry (FACS) for measuring CFSE-proliferation and intracellular cytokine staining (ICS). Carboxyfluorescein diacetate succinimide ester (CFSE)-proliferation analysis was performed according to the manufacturer's protocol (Invitrogen) and processed as previously described (Lichterfeld et al. 2004) using the following modification: 2.5-5.0×10^5 CFSE-labeled PBMC stimulated for 4-5 days (37° C., 5% CO2) with 15-30 μg of peptides in culture media (AIM V medium, 25 μg/mL gentamycin, and 10% heat-inactivated fetal bovine serum). The ICS analysis was performed as previously described (Horton et al. 2007; Pattacini et al. 2012).
(§5) The antibodies used for the proliferation analysis consisted of anti-CD4 allophycocyanin (APC) anti-CD3 APC-H7, and anti-CD8 Pacific Blue, and those for ICS were anti-CD3 APC-H7, anti-CD4 BD Horizon V450, anti-CD8 FITC, anti-granzyme B (GrzB) Alexa 700, anti-granzyme A (GrzA) PE (BD Biosciences, Cat #555349, 560176, 558207, 560345, 555366, 560213, 558904), and anti-perforin PerCP (Abcam, Cat #ab86319). Both analyses were performed with BD LSRII and […]™ Software (BD Biosciences), using a positive threshold of >1% CFSE^low for CFSE-proliferation except for ICS studies with threshold of >0.1% T cells expressing cytotoxin. The final value for each subject was derived after subtracting the result of each HIV^+ subject with the media control followed by subtraction with the average response of the media-control subtracted HIV^− subjects.

[2] = test system: CD3+CD4+ T cells from HIV+ subjects; test: CFSE-proliferation, CD3+CD4+ T cells from HIV+ subjects; conditions: for CD4^+ T-cell Responder Frequency: responders/tested
Procedure: as §1, §2, §3, §4, §5

[3] = test system: CD4+ or CD8+ T cells from HIV+ subjects; test: Intracellular cytotoxin staining (ICS), CD4+ or CD8+ T cells from HIV+ responders; conditions: for cytotoxin and CD107a expression in CD4+ and CD8+ T cells (in words): p24 peptides; for cytotoxin / CTL-associated activity (in words): RT pools and peptides
Procedure: Briefly, 1×10^6PBMCs (freshly isolated) are stimulated with 20 μg of peptides for 6 hours in a total volume of 200 μL in a 96-well plate in presence of Golgi transport inhibitor (37° C., 5% CO2). […] Cells were stained with the LIVE/DEAD® fixable yellow dye (Invitrogen, Eugene, Oreg.). […] The flow cytometry data is collected using BD LSRII and analyzed with the FACS DIVA software.
The cells were subsequently fixed and permeabilized with Cytofix/Cytoperm solution (BD Biosciences) before reaction with anti-cytotoxin antibodies. The antibodies consisted of anti-CD3 APC-H7, anti-CD4 BD Horizon V450, and anti-CD8 FITC followed by anti-GrzB Alexa 700 and anti-GrzA PE (all from BD Biosciences), and anti-perforin PerCP (Abcam, Boston, Mass.).
as §3
Flow cytometry (FACS) for measuring CFSE-proliferation and intracellular cytokine staining (ICS).
Both analyses were performed with BD LSRII and […]™ Software (BD Biosciences), using a positive threshold of >1% CFSE^low for CFSE-proliferation except for ICS studies with threshold of >0.1% T cells expressing cytotoxin.

[4] = test system: CD8+ T cells from HIV+ subjects; test: Intracellular cytotoxin staining (ICS: perforin, GrzA, GrzB, CD107a), CD8+ T cells from HIV+ subjects
Procedure: Briefly, 1×10^6PBMCs (freshly isolated) are stimulated with 20 μg of peptides for 6 hours in a total volume of 200 μL in a 96-well plate in presence of Golgi transport inhibitor (37° C., 5% CO2). The cells are processed as previously described (Horton et al. (2007)). Cells were stained with the LIVE/DEAD® fixable yellow dye (Invitrogen, Eugene, Oreg.). The monoclonal antibodies fluorochome-conjugated to human cytokines used are: APC-H7 to CD3 (clone SK7); BD Horizon V450 to CD4 (clone RPA-T4); Qdot to CD8 (clone 3B5); PE-cy7 to IFN-γ (clone 4S.B3); APC to IL-2 (clone MQ1-17H12) PerCP to perforin (clone B-D48); Alexa F1.700 to granzyme-B (clone GB11) and PE to granzyme-A (clone CB9). The flow cytometry data is collected using BD LSRII and analyzed with the FACS DIVA software.
The ICS analysis (Horton et al. (2007)) involved stimulating 0.5-1.0×10^6 freshly isolated PBMC for 6 h with the same peptide stimulant and culture conditions as the proliferation analysis in the presence of 1 μg/mL of Golgi transport inhibitor and monensin followed by labeling with LIVE/DEAD fixable yellow dye and then treatment with anti-CD16/CD32 antibody and T-cell phenotypic antibodies. The cells were subsequently fixed and permeabilized with Cytofix/Cytoperm solution (BD Biosciences) before reaction with anti-cytotoxin antibodies. The antibodies consisted of anti-CD3 APC-H7, anti-CD4 BD Horizon V450, and anti-CD8 FITC followed by anti-GrzB Alexa 700 and anti-GrzA PE (all from BD Biosciences), and anti-perforin PerCP (Abcam, Boston, Mass.).
as §3, §4, §5

[5] = small 9-13mer peptides, yr 4, responders to Fp9 or Fp14 pool via both proliferation and IFNγ
[6] = large 13-15mer peptides, yr 2, responders to Fp9 or Fp14 pool via CFSE proliferation

Compound	CD8^+ T-cell Responder Frequency [1, 5]	CD8^+ T-cell Responder Frequency (%) [1, 5]	CD4^+ T-cell Responder Frequency [2, 5]	CD4^+ T-cell Responder Frequency (%) [2, 5]	cytotoxin and CD107a expression in CD4+ and CD8+ T cells (in words) [3]	other results
Fp9-2/3b (APARMQCRA)	3/9	(33) %	0/9	(0) %	–	–
Fp9-3f (APARMQCRAWYL)	4/9	(44) %	1/9	(11) %	–	–
Fp9-3e (ARMQCRAWYL)	3/9	(33) %	1/9	(11) %	–	–
AEQASQEVKN [Hp15-1c]	–	–	–	–	high cytotoxin and CD107a expression	–
WRMLIDFRVLNKL [F3-4]	–	–	–	–	–	cytotoxin expression / CTL-associated activity in CD8+ T cells (in words) [4]: highest frequency and levels; cytotoxin / CTL-associated activity (in words) [3]: induced CTL-associated activities
CSCC[C@H](NC(=O)[C@H](Cc1c[nH]c2ccccc12)NC(=O)[C@H](CC(N)=O)NC(=O)[C@H](CCCCN)NC(=O)[C@@H](NC(=O)[C@H](C)NC(=O)[C@H](C)NC(=O)[C@H](CC(=O)O)NC(=O)[C@@H](N)[C@@H](C)O)C(C)C)C(=O)N[C@H](C(=O)O)[C@@H](C)O [Sp14-1c]	–	–	–	–	slightly lower number of responses	–
Fp14-1/2a (NTAEVKLYL)	4/10	(40) %	1/10	(10) %	–	–
IDFRVLNKLTDKGA [F3-5]	–	–	–	–	–	responder frequency of CD8+ T-cell proliferation to individual F3 peptides [1]: 3 of 8
QASQEVKNWM [Hp15-1a]	–	–	–	–	high cytotoxin and CD107a expression	–
VKNWMTQTL [Sp14-1a]	–	–	–	–	slightly lower number of responses	–
NPWNTPVFAIKKK [F3-1]	–	–	–	–	–	cytotoxin / CTL-associated activity (in words) [3]: induced CTL-associated activities
AEVKLYLKQSLSI [Fp14-3d]	–	–	–	–	–	Cytotoxins ([3]; responders to Fp9 or Fp14 peptide pools): Low Cytotoxins (only CD8)
Fp14-2/3c (AEVKLYLKQSL)	9/10	(90) %	5/10	(50) %	–	–
EQQAEARFAPARM [Fp9-1]	–	–	–	–	–	CD8^+ T-cell Responder Frequency (%) [1, 6]: (14) %; CD8^+ T-cell Responder Frequency [1, 6]: 1/7; CD4^+ T-cell Responder Frequency (%) [2, 6]: (0) %; CD4^+ T-cell Responder Frequency [2, 6]: 0/7
TPVFAIKKKSGKWRM [F3-2]	–	–	–	–	–	responder frequency of CD8+ T-cell proliferation to individual F3 peptides [1]: 3 of 8
LYLKQSLSI [Fp14-3/4e]	–	–	–	–	high frequency of cytotoxin expression	–
KKKSGKWRMLIDFRV [F3-3]	–	–	–	–	–	cytotoxin / CTL-associated activity (in words) [3]: induce cytotoxin expression
QEQNTAEVKL [Fp14-1a]	–	–	–	–	high cytotoxin and CD107a expression	–
Fp14-3/4g (YLKQSLSIA)	6/10	(60) %	0/10	(0) %	–	–
Fp14-2/3b (AEVKLYLKQ)	3/10	(30) %	1/10	(10) %	–	–
Fp9-1/2a (EARFAPARM)	5/9	(56) %	0/9	(0) %	–	–
AEARFAPARMQCRAW [Fp9-2]	–	–	–	–	–	CD8^+ T-cell Responder Frequency (%) [1, 6]: (43) %; CD8^+ T-cell Responder Frequency [1, 6]: 3/7; Fp9 responders whose CD8+ T cells proliferate to individual 13-15mer peptide ([1]; seven Fp9 responders): 3 of 7; CD4^+ T-cell Responder Frequency (%) [2, 6]: (14) %; CD4^+ T-cell Responder Frequency [2, 6]: 1/7
QNTAEVKLYL [Fp14-1b]	–	–	–	–	high frequency of cytotoxin expression; also recorded: high cytotoxin and CD107a expression	–
